Assays:
Type in all cases: functional
HL-60 [1] = test: Antitumor activity against human HL60 cells at 10^-4 mol/l by MTT assay
HL-60 [2] = test: Antitumor activity against human HL60 cells at 10^-5 mol/l by MTT assay
HL-60 [3] = test: Antitumor activity against human HL60 cells at 10^-6 mol/l by MTT assay
HL-60 [4] = test: Antitumor activity against human HL60 cells at 10^-7 mol/l by MTT assay
HL-60 [5] = test: Antitumor activity against human HL60 cells at 10^-8 mol/l by MTT assay
A549 [6] = test: Antitumor activity against human A549 cells at 10^-6 mol/l by SRB assay
A549 [7] = test: Antitumor activity against human A549 cells at 10^-4 mol/l by SRB assay
A549 [8] = test: Antitumor activity against human A549 cells at 10^-7 mol/l by SRB assay
A549 [9] = test: Antitumor activity against human A549 cells at 10^-5 mol/l by SRB assay
A549 [10] = test: Antitumor activity against human A549 cells at 10^-8 mol/l by SRB assay

Compound | Activity (HL-60 [1]) | Activity (HL-60 [2]) | Activity (HL-60 [3]) | Activity (HL-60 [4]) | Activity (HL-60 [5]) | Activity (A549 [6]) | Activity (A549 [7]) | Activity (A549 [8]) | Activity (A549 [9]) | Activity (A549 [10])
CC(C)c1cc2c(cc1O)[C@@]1(C)CCCC(C)(C)C1=C(O)C2=O | 55.4% | 54.4% | 11.9% | 11.9% | 8.3% |  |  |  |  | 
CC(C)c1cc2c(c(O)c1O)[C@@]1(C)CCCC(C)(C)C1=C(O)C2=O [14-DEOXYCOLEON U] | 50.6% | 53.6% | 11.5% | 13.9% | 8.4% | 11.5% | 50.6% | 13.9% | 53.6% | 8.4%
COc1c(C(C)C)cc2c(c1O)[C@@]1(C)CCCC(C)(C)[C@@H]1[C@@H](O)[C@@H]2OC [FORTUNIN C] | 58.5% | 56.2% | 14.4% | 10.8% | 9.3% |  |  |  |  | 

Reference: ChEMBL document CHEMBL1157520, “Abietane diterpenoids from the bark of Cryptomeria fortunei” (2008)
